According to a melting point compilation (Tetko et al.; mined from patent text by program, amines drawn as free bases though some values may be those of a salt):

SMILES	melting point [°C]
CCCCCC(C)N(Cc1ccc(C(C)(C)C)cc1)C(Nc1ccc(OC)cc1OC)=C1C(=O)COC1=O (centres undefined)	115 to 117
CC(C)(C)OC(=O)Nc1ccc(C#Cc2cccc(C#Cc3ccc(NC(=O)OC(C)(C)C)cc3)c2C(=O)O)cc1	118
O=c1c2cccnc2sc(=Nc2ccc(C(F)(F)F)cc2)n1Cc1ccccc1	126 to 128
C=C(C)c1ccc(O)cc1	167 to 168
Cc1oc2ccccc2c1C(=O)NCc1ccc2c(Br)c(O)ccc2c1	179 to 181
CN(C)CCOc1nccc(-c2c(-c3ccc(F)cc3)ncn2C2CCC(=O)CC2)n1	84 to 86
CCOC(=O)c1cn(Cc2ccccc2)nc1OCc1ccc(OCc2nc(-c3ccco3)oc2C)c(OC)c1	117 to 118
Nc1cnn2c1NCC2	177 to 179
COc1ccc(CBr)c(Cl)c1Cl	101 to 102
Nc1ncc2c(n1)-c1sc(N)nc1CC2	293 to 300
COc1ccc(CNc2nc(SC)ncc2CO)cc1Cl	159 to 160
CCNc1ccccc1Nc1c(C(=O)O)cnc2c1cnn2CC	224 to 226
Cc1c(CN2CCOCC2)ccc2c1-c1[nH]nc(-c3ccsc3)c1C2	272 to 274
c1ccc(-c2nnc(NCC3CC3)cc2-c2ccncc2)cc1	199 to 200
Cn1c(=O)nc(-c2ccccc2)c2c3c(sc21)CCCC3	215 to 216
COC1(C)CCc2cc(O)c(C(C)(C)C)cc2O1 (centres undefined)	115 to 117
COCC(=O)N(CC(C)=NOC)c1c(C)cccc1C	56 to 57
COc1cc(C=Cc2nc3c(c(=O)n(C)c(=O)n3C)n2C)cc(OC)c1	228 to 230
CCOC(=NC(=O)c1ccc(C(F)(F)F)cc1)N1Cc2ccccc2-c2ccccc2C1	112 to 113
COc1c(F)c(F)c(N)c2c(=O)c(C(=O)O)cn(C3CC3)c12	291 to 292
COc1cccc(CNc2ncnc3c2sc2nc(N(C)C)c4c(c23)CC(C)(C)OC4)c1OC	89.9 to 90.7
CC(C)CC(=O)Nc1cccc(-c2ccnc3c(-c4cccc(N(C)C)c4)cnn23)c1	182 to 184
CCn1cc(C(=O)O)c(=O)c2ccc(Cl)c(C)c21	221 to 222
CC(C)Oc1ccc(OCc2ccccc2)cc1-c1nc2cc(CNCC(=O)O)cnc2[nH]1	182 to 184
CC(C)(C)C(=O)Nc1cc2c(O)nc[nH]c-2n1	295
CN(N=C(Cl)c1c(F)cccc1Cl)S(=O)(=O)c1ccccc1	103 to 105

SMILES	melting point [°C]
COc1ccc(Cl)cc1C(=O)NCCc1ccc(-c2ccco2)c(S(N)(=O)=O)c1	195
COc1cc(Cl)c2nc(NN)nc(N)c2c1OC	168 to 169
CC1(c2nn(-c3c(Cl)cc(C(F)(F)F)cc3Cl)cc2C#N)CC1(Cl)Cl (centres undefined)	97 to 98.5
CCCC(=Cc1ccccc1)CN1CCc2nc(N)sc2CC1	77 to 80
CN(Cc1ccccc1)C1CCN(c2ccc(N)cc2)CC1	138
NCCCCCCCCCCCCCCCCCCCCCC(=O)O	166 to 168
COc1cc2c(cc1O)CCN(C(=O)c1cc(OC)c(OC)c(OC)c1)C2=O	175 to 176
CC1CCN(C(=O)[C@H](CCCCNc2ccccn2)NS(=O)(=O)c2ccc3ccccc3c2)CC1	127 to 129
CC1CC2=CC(=O)CCC2C2CCC3(C)C(C(F)F)CCC3C12 (centres undefined)	131 to 135
O=C(O)[C@H]1CN(C(=O)OCc2ccccc2)CCN1c1cc(Cl)ccc1[N+](=O)[O-]	145 to 155
c1ccc(-c2nc3cc(-c4nc(COc5ccc(CCCn6ccnc6)cc5)co4)ccc3o2)cc1	166 to 167
COc1ccc(Br)cc1CN1CCC(=O)C(C(c2ccc(F)cc2)c2ccc(F)cc2)C1 (centres undefined)	129 to 130
N#CN=C(Oc1ccccc1)N1CCCCC1	85.7
CCc1nc2c(N)nc3c(c2n1CC(C)(C)OCCS(C)(=O)=O)CCCC3	225 to 227
Cc1cc2c(c(C)c1C)C(c1ccc(C(C)C)cc1)CO2 (centres undefined)	70 to 71
COc1cc2[nH]c(=O)c3ccccc3c2cc1OC	253 to 255
FC(F)Oc1cccc(C=C2c3ccccc3CCc3ccccc32)c1	91.3
CC(=O)c1cccc(C(=O)O)c1O	135 to 136
COC(=O)C(C)c1ccc2oc(-c3c(F)cccc3Cl)nc2c1 (centres undefined)	104 to 105
Cc1ccc(-c2ccc3c(c2)C=C(C(=O)Nc2ccc(CN(C)C4CCOCC4)cc2)CCN3C=O)cc1	229 to 230
CCCCCC(CC(=O)Nc1cc(CCC(N)=O)ccc1C(C)(C)C)c1ccc(OC)cc1OC (centres undefined)	113 to 114
CCCc1cnc(NC(=O)C2c3ccccc3Oc3ccccc32)o1	203 to 205
CC(=O)CC(=O)OC(c1ccccc1)c1ccccc1	44 to 54
Nc1cc(-c2ncnc(C(F)F)c2Cl)c(F)cc1Cl	106 to 108
CC(C)CCC(=O)Nc1c(C(O)(C(F)(F)F)C(F)(F)F)ccc2ccccc12	62 to 63
COC(=O)C(c1ccccc1)N1C(=O)C(N=[N+]=[N-])C1Sc1nnc(C)s1 (centres undefined)	81 to 84

SMILES	melting point [°C]
NC(=O)C=Cc1cccs1	153
Cc1ccc(CN2CC=C(/C=C/c3ccc(Cl)cc3)CC2)cc1	113 to 115
NS(=O)(=O)c1c(C(F)F)nsc1OCC(F)(F)F	102 to 104
COc1ccc(C(CBr)(OC)OC)cc1	52 to 53
O=Cc1c(Br)ccc2cc3c(cc12)OCO3	165 to 166
CC(=O)c1ccc2ccn(S(=O)(=O)c3ccccc3)c2c1	160 to 163
COc1ccccc1-c1cc(O)c(-c2ccccc2C(=O)O)nn1	224 to 227
COC(=O)c1ccccc1OCC(O)CNCCNC(=O)C(C)C (centres undefined)	128 to 129
NNCc1ccccc1S(=O)(=O)O	257 to 262
COC(=O)CCc1ccc(CCNC(=O)c2cc(Cl)ccc2OC)cc1	58 to 61
Cn1nc(N)nc1NCCCOc1cccc(CN2CCCC2)c1	95 to 95.5
Cc1nccc2c3ccc(OCCC(C)C)cc3n(CCC(C)C)c12	106
CCCCCCCCCCC1CCCC1C(=O)Nc1cccc2ncccc12 (centres undefined)	75
O=C1CC(Sc2ccccc2)C(O)(c2ccccc2)C(Sc2ccccc2)C1 (centres undefined)	126 to 127
CC(Cn1ncnn1)n1nnc2cc3c(=O)n(CC4CC4)nnc3cc2c1=O (centres undefined)	134 to 136
CS(=O)(=O)c1ccc(-c2c(-c3ccc(F)cc3)nc3sccn23)cc1	184 to 185
COc1ccc(CCNC(=O)C2CCCCC2)cc1OC	110 to 111
COc1ccc(C2(C)C(=O)c3c(N4CCN(C)CC4)cc(Cl)cc3N(Cc3cccc(N)c3)C2=O)cc1 (centres undefined)	90 to 93
CN(C)c1cc(C(=O)CS(C)(=O)=O)cc(N(C)C)c1C(C)(C)C	177 to 179
c1ccc2c(c1)Cc1c(-c3ccc(OCCN4CCOCC4)cc3)n[nH]c1-2	175 to 176
O=C(NCc1ccc(Cl)cc1)c1ccccc1S	131 to 132
COC(=O)c1sc2nc(C)c(Cl)c(=O)n2c1C	140 to 141
O=C(N1C=CC2=C(CCC=C2)c2ccccc21)n1ccnc1	189 to 190
NC(=O)c1csnc1-c1cccc(C(F)(F)F)c1	141 to 142
N#CCCNC(=O)c1cccc(-c2ccc3c(c2)C(c2ccc(Cl)cc2Cl)CO3)c1 (centres undefined)	130 to 131
COc1ccc(N2CCN(c3c(C)c(C=O)c4c(c3C)C(c3ccc(C)cc3)C(C)(C)O4)CC2)cc1 (centres undefined)	175 to 177

SMILES	melting point [°C]
COC(=O)C(Oc1ccc(C(C)(C)C)cc1)c1ccc(Oc2ccc(Cl)cc2)cc1 (centres undefined)	118 to 120
Cc1c(C(=O)O)cnn1-c1cc(Cl)cc(Cl)c1	229 to 230
CCCc1c(Cl)oc2ccc(I)cc2c1=O	103 to 105
CCCCCCC(N)C(C)O (centres undefined)	81 to 86
COc1ccc(-c2ccc(C(=O)O)c(C(=O)O)c2)c2c1OCCO2	192 to 196
O=c1oc(C(F)(F)F)nc(-c2ccccc2)c1-c1ccccc1	118
COc1cc(NC(=O)N(O)C(C)C)cc(OC)c1OC	140 to 141
CCCOCCOC(=O)C1=C(C)NC(C)=C(C(=O)C(C)S(=O)(=O)NC)C1c1cccc([N+](=O)[O-])c1 (centres undefined)	120 to 123
CC(C)c1ccc2c(=O)cc(C(=O)O)[nH]c2c1	> 240
COC(=O)CCC(=O)c1ccccc1N	50 to 51
CN1C(=O)C(Br)=C(c2cn(C)c3ccccc23)C1=O	155 to 158
CSc1nc(-c2ccccn2)n(-c2ccc(C)c(C)c2)c(=O)c1C#N	218 to 223
COc1cccc2c(Nc3ccccc3C)nc(N3CCCC3)nc12	181 to 183
CCS(=O)(=O)c1nnc(NN)s1	166 to 167
CC(C)(C)OC(=O)NCc1ccc2c(Br)c(O)ccc2c1	150 to 152
CC(C)N(CCC(C(N)=O)(c1ccc(O)cc1)c1ccccn1)C(C)C (centres undefined)	148 to 151
CC(=O)OCCN1C2=NCCN2C(=O)c2ccccc21	124 to 126
CCOC(=O)c1cn2c(ccc3ccc(OC)cc32)n1	146 to 148
COc1ccc(-c2[nH]nc3c2C(=O)c2c(NC(=O)C4CC4)cccc2-3)cc1	289
COc1ccc2c(c1)C(c1ccc(N)cc1)=Nn1c(nc(C)c1C)C2	280
COc1nc2cc(F)cc(CN=[N+]=[N-])c2nc1OC	75 to 78
Nc1ccc(-c2cc(OCCCCCC(=O)O)nc(-c3ccccc3)c2)cc1	131 to 133
COc1ccc(CN2C(=O)C(NC(=O)OCc3ccccc3)C2C2COC(=O)O2)cc1OC (centres undefined)	135 to 136
CCC1SCCCN1C(=S)Nc1cccc(Br)c1 (centres undefined)	77 to 79
CCCc1ccc(-c2c3ccccc3c(-c3ccc(CCC)cc3)c3cc(Cl)ccc23)cc1	225 to 227
Cc1nnc(-c2ccc3occ(-c4ccc(S(C)(=O)=O)c(F)c4)c3c2)o1	199 to 200
